According to patent publication US20180125835A1, “Dosage and Use of an A2A Antagonist” (H. Lundbeck A/S, priority 2014, published 2018):

Key:
[1] = Plasma exposure in Long Evans rats; type: in vivo; details: rat
Procedure: A minimum of 400 μL of whole blood was collected via saphenous bleed at 10 min, 20 min, 60 min, and 120 min post drug administration, i.e. at time points that coincided with the activity study (and phase 2: 5-choice experiments). Blood was collected and transferred into K3 EDTA tubes. The tubes were allowed to sit at room temperature for approximately 2 minutes and placed on wet ice until centrifugation. Blood was spun in the centrifuge with speed of 3,500 rpm for 15 minutes at 4° C. Plasma was separated and placed into a labeled 0.75 ml Matrix tube and capped. Plasma tubes were placed into a Matrix rack and stored in a −80° C. freezer. At the final time point (120 minutes post drug administration) following blood collection by cardiac puncture, the brain tissue was extracted and hemisected along the midline. One hemisphere, without the cerebellum, was placed in the 15 ml pre-weighed brain tube while the other portion was disposed. The brain tubes were weighed, frozen on dry ice, and stored at −80 C. Brain tissue and plasma samples were shipped on dry ice to Sponsor. Blood and brain levels of compound 504 were to be conducted by the Sponsor.

Long Evans rats = experiment: Locomotor activity in habituated rats; type: in vivo, rat
From the text: Sixteen (16) male Long Evans rats were habituated to Med Associates test activity chambers (17″ W×17″ L×12″ H) over three, 90-minute sessions. […] Total distance travelled and rearing counts for the total session were the primary measure.

A2B = target: T1, A2B (Homo sapiens, UniProt P29275); experiment: Adenosine receptor binding affinity, human A2B
T1 sequence (P29275 1-332): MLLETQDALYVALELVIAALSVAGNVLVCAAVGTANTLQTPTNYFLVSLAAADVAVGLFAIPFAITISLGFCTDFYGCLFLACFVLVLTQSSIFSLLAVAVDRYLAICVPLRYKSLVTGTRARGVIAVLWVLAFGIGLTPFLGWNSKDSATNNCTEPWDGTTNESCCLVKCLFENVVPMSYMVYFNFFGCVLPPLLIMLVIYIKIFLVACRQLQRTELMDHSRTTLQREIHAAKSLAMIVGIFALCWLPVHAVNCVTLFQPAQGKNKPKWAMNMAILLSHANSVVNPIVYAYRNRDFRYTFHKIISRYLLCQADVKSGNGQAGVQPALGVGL

## Cc1ccc(C(=O)Nc2nc(-c3ccco3)c(C(=O)C3CCOCC3)s2)cn1 [Compound 504]
[1]; oral 0.01-0.1 mg/kg
  plasma concentrations: 100 to 450 ng/mL
[1]; oral 0.03-0.1 mg/kg, 60 min and 90 min sampling
  plasma levels: 150 to 400 ng/mL
Long Evans rats; 0.01-1 mg/kg oral, 90 min test session
  locomotor activity (distance travelled and rearing counts): dose related increase
Long Evans rats; 90 min session, all doses
  timecourse of locomotor activity changes: peaked during the first 10 min timebin
Long Evans rats; oral, 90 min session
  dose at which magnitude of locomotor effect plateaued: 0.06 to 0.1 mg/kg
Long Evans rats; same study
  effect size on locomotor activity compared with amphetamine (1 mg/kg IP): significantly less
A2B
  Ki: 33.8 ± 5.91 nM
